Measured values published in patent US20230123497A1, “NOVEL ANTIBACTERIAL HYDROGELS” (NewSouth Innovations Pty Limited, priority 2020, published 2023).
“And” between values parts separate entries of the source, which are not always exact repeats. Equal values may be shown once.

How the values were obtained:
HEK 293T cells = test: Cytotoxicity, Alamar Blue colorimetric assay; format: cell-based
Method: Cytotoxicity measurements were performed using an Alamar Blue colorimetric assay. Each experiment was repeated at least three times. Cells were passaged using standard cell culture procedures. Cells were detached with trypsin and centrifuged (1000 rpm for 3 min). The supernatant was removed and the cells re-suspended in Dulbecco's Modified Eagle Medium (DMEM) at a concentration of 100,000 cells per mL. Cells were seeded at a concentration of 6,000 cells per well. For cytotoxicity measurements, […] of hydrogel made from short-peptide 4 (at 1% w/v and 2% w/v) and short peptides 11, 12, 13, and 16 (at 0.3, 0.6, and 1.0% w/v) were added in triplicate to a 96-well plate and allowed to set overnight. Surrounding wells were supplemented with water to ensure hydration of the gels. Gels were then incubated for 24 h with DMEM. Cells were seeded atop the hydrogels and incubated for 24 hours, before […] of Alamar Blue was added to the wells, followed by further incubation for 4 h. Control wells included cell-free gels, no hydrogels and a negative control of 15% (v/v) DMSO. The absorbances at 570 nm and 596 nm were recorded using a BioRad Benchmark plate reader.

Solubility in water = format: physicochemical; details: even with vigorous heating
Method: Nitrobenzene-appended short peptide 4 was not soluble in water even with vigorous heating. Therefore, NaOH (2 equivalents) was added to deprotonate the carboxylic acid group at the C-terminus of short peptide 4, generating a sodium carboxylate salt with increased solubility in water. The yellow suspension of short peptide 4 was sonicated for 5 minutes after the addition of alkali, resulting is dissolution and formation of a yellow solution.

E. coli K12 = test: Antibacterial activity of cationic hydrogel 11, viable count method; format: cell-based, Escherichia coli; details: hydrogel 11 at 1% w/v in contact with E. coli
Method: The antibacterial activity of the anthranilamide-based cationic hydrogels 11-13 and 15-19 was investigated in vitro against S. aureus. The antibacterial activity of anthranilamide-based cationic hydrogel 11 was also investigated in vitro against E. coli.
First, a single colony of S. aureus 38 or E. coli K12 was grown in Luria-Bertani (LB) broth medium at 37° C. overnight. The resulting bacteria were harvested, via centrifugation, to obtain a bacteria pellet which was re-suspended in the same volume of LB medium, twice. The optical density (OD) value of the resulting culture was adjusted to 0.1 at 600 nm in LB (10^8 cfu·mL^−1). This bacteria solution was then further adjusted to 3×10^4 cfu mL^−1. (CFU or cfu=colony-forming unit). Bacteria solutions (1 mL), which contain either 10^8 CFUs/mL or 3×10^4 CFUs/mL, were gently added to hydrogel 11 at 1% w/v with total volume of 1 mL. Anthranilamide-based cationic hydrogels 11-13 and 15-19 (1 mL) were prepared at 1% w/v in glass vials as described above. On top of these pre-formed hydrogels, 1 mL of bacteria solution was carefully cast. […] As a negative control, a bacterial solution in the absence of hydrogel was used. […] The following day, bacterial growth inhibition was quantified using the viable count method. […]

S. aureus 38 = test: Microdilution MBC of released fibers versus free compound; format: cell-based, Staphylococcus aureus
Method: To confirm their antibacterial efficacy, the released fibers from day 1 and day 9 were subjected to a standard microdilution protocol.
To further investigate their antibacterial activity, the released fibers from hydrogel 11 were tested against S. aureus 38. The solutions sampled from day 1 and day 9 were adjusted to obtained final concentrations of […]. Then, 100 μL of these solutions were transferred to a 96 well plate. […] 100 μL of each of these peptide solutions was also transferred to a 96 well plate.
Subsequently, 100 μL of a bacteria solution, adjusted to 10^6 CFUs/mL was added to each well. Two controls were used: one containing 100 μL of LB and 100 μL of PBS, and the other containing 100 μL of bacteria solution and 100 μL of PBS. The plate was then incubated at 37° C. for 24 hours. The following day, 20 μL solution from each well was subjected to a serial dilution then transferred onto agar plates followed by incubation at 37° C. for another 24 hours. MBC value was determined as the lowest concentration that inhibited S. aureus growth on the agar plate.

[1] = Release of cationic short peptide from hydrogel (UV-Vis); format: physicochemical; details: hydrogel 1% w/v, PBS, 37° C.
Method: Hydrogel 11 was made at 1% w/v with a final volume of 1 mL. The resulting hydrogel was left to stand overnight at room temperature. Phosphate buffer solution (PBS, 1 mL) was added gently from the side wall to avoid physical fractures. Subsequently, the vial was incubated at 37° C., where 1 mL of PBS was sampled at each time point and replaced with fresh PBS. Samples were subjected to 10× dilution before analysis using UV-Vis spectroscopy. This experiment was performed in triplicate.

O=C(Nc1ccccc1C(=O)N[C@@H](Cc1ccccc1)C(=O)N[C@@H](Cc1ccccc1)C(=O)O)c1ccc([N+](=O)[O-])c(C(F)(F)F)c1 [Compound 4, (2-(4-Nitro-3-(trifluoromethyl)benzamido)benzoyl)-L-phenylalanyl-L-phenylalanine]
cell viability (HEK 293T cells; hydrogel 4 at 1% w/v, compared to the control): more than 90%
cell viability (HEK 293T cells; hydrogel 4 at 2% w/v): A similar result was observed
solubility in water (Solubility in water): not soluble

NCCCNC(=O)[C@H](Cc1ccccc1)NC(=O)c1ccccc1NC(=O)c1ccc2ccccc2c1 [Compound 11]
bacteria reduction (E. coli K12): 6.4 Log10 and 6.2 Log10
MBC (S. aureus 38; Staphylococcus aureus, 38, fibers in solution released from hydrogel 11, S. aureus, 24 hours, read-out: minimum bactericidal concentration (MBC)): 62 µM
bacteria reduction (S. aureus 38; free compound (not hydrogel-formed) at 62 μM, S. aureus): < 1 Log10 CFU/mL
peptide released from hydrogel ([1]; 24 hours): 0.15 mg/mL and 221 μM
total peptide released ([1]; over 9 days): ~14%
